# Results taken from patent US11414413B2, “Heterocyclic compound as JAK inhibitor, and salts and therapeutic use thereof” (Suzhou Longbiotech Pharmaceuticals Co., Ltd., priority 2016, dated 2022).
# Key:
# Type in all cases: biochemical
# JAK3 = JAK3 (Homo sapiens (Human), UniProt P52333); assay: Inhibition of JAK3, luminescence kinase assay (ADP-Glo); conditions: purified recombinant JAK3
# Method: (§1) The study of the effect of compounds on the activity of purified recombinant JAK was performed by studying the inhibitory activity of the compounds on JAK from the enzymatic level. The experimental principle is to use a luminescence kinase assay to detect the ADP content produced by the reaction of JAK with the substrate Poly (4:1 Glu, Tyr) peptide: after ADP is converted to ATP, ATP can act as a substrate for the Ultra-Glo luciferase catalytic reaction, producing an optical signal. The luminescence signal is positively correlated with the amount of ADP and kinase activity. Therefore, the inhibitory effect of the compounds on the recombinant JAK was determined by observing the luminescence signal produced by the reaction of JAK and the substrate, and was expressed by IC50.
# (§2) Experimental method: 10 different concentrations of compounds were incubated with JAK1, JAK2 and JAK3, respectively, for 60 minutes at 37° C. The substrate and ATP were then added, mixed, and reacted at 37° C. for 50 minutes. 25 μl of ADP-Glo™ was added and mixed for 2 minutes. The reaction was carried out for 50 minutes at room temperature. Further, 50 μl of the detection reagent was added and mixed for 2 minutes, and incubated at room temperature for 50 minutes, and detected by a chemiluminometer.
# JAK2 = JAK2 (Homo sapiens (Human), UniProt O60674); assay: Inhibition of JAK2, luminescence kinase assay (ADP-Glo); conditions: purified recombinant JAK2
# Sequence of JAK2 (O60674 whole entry): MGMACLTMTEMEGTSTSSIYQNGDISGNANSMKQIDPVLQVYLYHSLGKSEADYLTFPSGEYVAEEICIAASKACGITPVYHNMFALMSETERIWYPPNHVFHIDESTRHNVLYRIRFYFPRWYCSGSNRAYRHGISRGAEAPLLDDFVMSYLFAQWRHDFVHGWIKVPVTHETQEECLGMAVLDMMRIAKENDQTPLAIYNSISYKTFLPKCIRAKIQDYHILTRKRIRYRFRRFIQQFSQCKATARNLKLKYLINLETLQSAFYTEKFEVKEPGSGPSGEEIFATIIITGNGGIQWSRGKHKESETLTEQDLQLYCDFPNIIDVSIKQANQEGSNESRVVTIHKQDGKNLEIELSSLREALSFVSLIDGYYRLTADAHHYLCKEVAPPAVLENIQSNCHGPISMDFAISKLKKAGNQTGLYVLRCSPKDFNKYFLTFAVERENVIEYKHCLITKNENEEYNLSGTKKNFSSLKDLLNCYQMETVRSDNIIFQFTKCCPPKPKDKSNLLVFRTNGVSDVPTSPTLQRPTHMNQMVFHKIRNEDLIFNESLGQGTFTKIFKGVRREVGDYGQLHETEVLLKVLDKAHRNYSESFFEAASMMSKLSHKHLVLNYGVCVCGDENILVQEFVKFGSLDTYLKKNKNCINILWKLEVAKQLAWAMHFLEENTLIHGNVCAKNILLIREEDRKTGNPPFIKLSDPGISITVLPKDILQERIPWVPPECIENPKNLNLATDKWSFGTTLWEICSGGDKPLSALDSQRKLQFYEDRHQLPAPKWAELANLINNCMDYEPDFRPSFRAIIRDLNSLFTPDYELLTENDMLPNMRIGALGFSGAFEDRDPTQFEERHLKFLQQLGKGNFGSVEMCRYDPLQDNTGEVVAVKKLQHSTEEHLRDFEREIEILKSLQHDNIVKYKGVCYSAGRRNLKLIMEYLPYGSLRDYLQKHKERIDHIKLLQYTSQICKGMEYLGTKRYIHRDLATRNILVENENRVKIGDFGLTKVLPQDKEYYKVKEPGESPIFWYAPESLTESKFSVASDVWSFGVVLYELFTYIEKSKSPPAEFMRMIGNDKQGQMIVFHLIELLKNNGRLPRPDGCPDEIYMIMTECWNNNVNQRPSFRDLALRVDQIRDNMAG
# Method: as §1, §2
# JAK1 = JAK1 (Homo sapiens (Human), UniProt P23458); assay: Inhibition of JAK1, luminescence kinase assay (ADP-Glo); conditions: purified recombinant JAK1
# Sequence of JAK1 (P23458 whole entry): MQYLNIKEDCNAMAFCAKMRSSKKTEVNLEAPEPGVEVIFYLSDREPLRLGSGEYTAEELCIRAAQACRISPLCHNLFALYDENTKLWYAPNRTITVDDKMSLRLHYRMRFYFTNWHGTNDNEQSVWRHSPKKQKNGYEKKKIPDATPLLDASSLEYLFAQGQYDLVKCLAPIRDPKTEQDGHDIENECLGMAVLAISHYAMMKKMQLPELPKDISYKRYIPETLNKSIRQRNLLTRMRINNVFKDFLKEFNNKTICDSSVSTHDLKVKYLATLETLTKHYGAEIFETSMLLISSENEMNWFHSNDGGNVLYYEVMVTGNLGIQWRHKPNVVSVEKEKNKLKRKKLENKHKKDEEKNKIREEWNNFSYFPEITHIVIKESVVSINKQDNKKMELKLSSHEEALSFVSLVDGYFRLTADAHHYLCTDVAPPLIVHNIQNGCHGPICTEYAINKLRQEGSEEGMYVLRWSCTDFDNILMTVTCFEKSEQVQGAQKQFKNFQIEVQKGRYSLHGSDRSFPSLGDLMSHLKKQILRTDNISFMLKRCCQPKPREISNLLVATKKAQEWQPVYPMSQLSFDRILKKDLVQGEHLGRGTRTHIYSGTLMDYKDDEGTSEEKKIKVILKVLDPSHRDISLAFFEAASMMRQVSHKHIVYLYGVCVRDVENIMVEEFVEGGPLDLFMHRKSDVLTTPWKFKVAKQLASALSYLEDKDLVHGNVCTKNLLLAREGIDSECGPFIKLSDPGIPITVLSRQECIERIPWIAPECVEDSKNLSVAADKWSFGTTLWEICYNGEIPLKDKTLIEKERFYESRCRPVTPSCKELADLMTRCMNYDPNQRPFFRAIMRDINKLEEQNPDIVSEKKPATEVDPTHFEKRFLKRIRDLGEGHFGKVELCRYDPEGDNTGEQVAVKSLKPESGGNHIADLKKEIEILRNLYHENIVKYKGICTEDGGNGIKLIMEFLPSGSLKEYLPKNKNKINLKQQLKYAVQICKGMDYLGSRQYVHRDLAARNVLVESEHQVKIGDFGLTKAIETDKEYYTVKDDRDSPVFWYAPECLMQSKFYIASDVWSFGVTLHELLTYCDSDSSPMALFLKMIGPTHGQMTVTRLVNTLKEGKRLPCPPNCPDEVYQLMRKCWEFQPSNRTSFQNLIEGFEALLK
# Method: as §1, §2
# Sequence of JAK3 (P52333 whole entry): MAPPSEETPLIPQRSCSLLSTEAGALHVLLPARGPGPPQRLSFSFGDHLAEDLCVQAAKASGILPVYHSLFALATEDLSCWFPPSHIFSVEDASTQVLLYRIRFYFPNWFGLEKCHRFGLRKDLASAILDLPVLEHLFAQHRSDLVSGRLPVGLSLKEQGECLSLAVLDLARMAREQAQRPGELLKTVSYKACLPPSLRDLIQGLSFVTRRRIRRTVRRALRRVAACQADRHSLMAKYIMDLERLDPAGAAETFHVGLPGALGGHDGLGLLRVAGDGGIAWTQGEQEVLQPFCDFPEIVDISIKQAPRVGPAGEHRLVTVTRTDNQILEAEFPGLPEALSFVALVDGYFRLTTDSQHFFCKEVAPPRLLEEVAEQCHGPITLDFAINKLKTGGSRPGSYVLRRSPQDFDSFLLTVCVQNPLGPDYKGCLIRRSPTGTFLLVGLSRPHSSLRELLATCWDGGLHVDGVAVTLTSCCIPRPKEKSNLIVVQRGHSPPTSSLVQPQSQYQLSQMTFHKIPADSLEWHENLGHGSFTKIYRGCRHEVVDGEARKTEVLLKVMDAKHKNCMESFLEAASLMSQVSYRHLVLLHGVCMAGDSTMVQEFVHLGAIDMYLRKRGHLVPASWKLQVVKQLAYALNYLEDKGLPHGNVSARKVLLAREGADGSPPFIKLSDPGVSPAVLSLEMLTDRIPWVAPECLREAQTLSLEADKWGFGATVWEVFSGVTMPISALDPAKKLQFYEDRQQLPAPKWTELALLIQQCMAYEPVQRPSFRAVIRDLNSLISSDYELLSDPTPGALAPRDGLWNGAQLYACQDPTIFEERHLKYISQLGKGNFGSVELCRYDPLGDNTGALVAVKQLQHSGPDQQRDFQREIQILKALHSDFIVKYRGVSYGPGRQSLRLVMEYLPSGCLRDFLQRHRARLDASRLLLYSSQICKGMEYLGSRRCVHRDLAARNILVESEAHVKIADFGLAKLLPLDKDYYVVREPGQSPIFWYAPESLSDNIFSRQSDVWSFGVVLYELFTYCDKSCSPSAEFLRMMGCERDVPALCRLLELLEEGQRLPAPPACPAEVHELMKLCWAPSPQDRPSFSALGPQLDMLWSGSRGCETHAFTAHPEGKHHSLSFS
SMILES,IC50 (JAK3) [nM],IC50 (JAK2) [nM],IC50 (JAK1) [nM]
"NC(=O)CC1(n2cc(-c3c[nH]c4ncccc34)cn2)CCS(=O)(=O)CC1 [Example 18, 2-(4-(4-(1H-pyrrolo[2,3-b]pyridin-3-yl)-1H-pyrazol-1-yl)-1,1-dioxotetrahydro-2H-thiopyran-4-yl)acetamide]",< 20,> 50,< 20
"N#CC1(Nc2ccnc(-c3ccnc4[nH]ccc34)n2)CCC1 [Example 56, 1-((2-(1H-pyrrolo[2,3-b]pyridin-4-yl)pyrimidin-4-yl)amino)cyclobutanecarbonitrile]",> 50,> 50,> 50
"CS(=O)(=O)N1CCC(CC(=O)NCC(F)(F)F)(n2cc(-c3ncnc4[nH]ccc34)cn2)CC1 [Example 23, 2-(4-(4-(7H-pyrrolo[2,3-b]pyrimidin-4-yl)-1H-pyrazol-1-yl)-1-(methylsulfonyl)piperidin-4-yl)-N-(2,2,2-trifluoroethyl)acetamide]",> 50,> 50,20 to 50
"CCS(=O)(=O)N1CC(CC#N)(n2cc(-c3c[nH]c4ncccc34)cn2)C1 [Example 1, 2-(3-(4-(1H-pyrrolo[2,3-b]pyridin-3-yl)-1H-pyrazol-1-yl)-1-(ethylsulfonyl)azetidin-3-yl)acetonitrile]",–,20 to 50,–
"O=C(CC1(n2cc(-c3c[nH]c4ncccc34)cn2)CCS(=O)(=O)CC1)NCC(F)(F)F [Example 19, 2-(4-(4-(1H-pyrrolo[2,3-b]pyridin-3-yl)-1H-pyrazol-1-yl)-1,1-dioxotetrahydro-2H-thiopyran-4-yl)-N-(2,2,2-trifluoroethyl)acetamide]",> 50,> 50,20 to 50
"O=C(CC1(n2cc(-c3ncnc4[nH]ccc34)cn2)CCS(=O)(=O)CC1)NCC(F)(F)F [Example 20, 2-(4-(4-(7H-pyrrolo[2,3-d]pyrimidin-4-yl)-1H-pyrazol-1-yl)-1,1-dioxotetrahydro-2H-thiopyran-4-yl)-N-(2,2,2-trifluoroethyl)acetamide]",> 50,> 50,20 to 50
"CCS(=O)(=O)N1CC(C#N)(Nc2ccnc(-c3ncnc4[nH]ccc34)n2)C1 [Example 46, 3-((2-(7H-pyrrolo[2,3-d]pyrimidin-4-yl)pyrimidin-4-yl)amino)-1-(ethylsulfonyl)azetidine-3-carbonitrile]",> 50,> 50,> 50
"N#CC1(Nc2ccnc(-c3ncnc4[nH]ccc34)n2)CCCC1 [Example 58, 1-((2-(7H-pyrrolo[2,3-d]pyrimidin-4-yl)pyrimidin-4-yl)amino)cyclopentanecarbonitrile]",> 50,> 50,> 50
CC(C)(CC(=O)NCC(F)(F)F)n1cc(-c2ncnc3[nH]ccc23)cn1 [Example 29],< 20,20 to 50,> 50
"O=C(CC1(n2cc(-c3ccnc4[nH]ccc34)cn2)CCS(=O)(=O)CC1)NCC(F)(F)F [Example 21, 2-(4-(4-(7H-pyrrolo[2,3-b]pyridin-4-yl)-1H-pyrazol-1-yl)-1,1-dioxotetrahydro-2H-thiopyran-4-yl)-N-(2,2,2-trifluoroethyl)acetamide]",> 50,> 50,20 to 50
"O=C(CC1(n2cc(-c3ncnc4[nH]ccc34)cn2)CCCC1)NCC(F)(F)F [Example 26, 2-(1-(4-(1H-pyrrolo[2,3-b]pyrimidin-4-yl)-1H-pyrazol-1-yl)cyclopentyl)-N-(2,2,2-trifluoroethyl)acetamide]",–,–,20 to 50
CS(=O)(=O)N1CCC(CC#N)(n2cc(-c3c[nH]c4ncccc34)cn2)CC1 [Example 5],< 20,–,< 20

# More lines, now with the values ahead:
IC50 (JAK3) [nM],IC50 (JAK2) [nM],IC50 (JAK1) [nM],SMILES
20 to 50,–,–,"CCS(=O)(=O)N1CCC(Nc2ccnc(-c3c[nH]c4ncccc34)n2)(C(=O)NCC(F)(F)F)CC1 [Example 38, 4-((2-(1H-pyrrolo[2,3-b]pyridin-3-yl)pyrimidin-4-yl)amino)-1-(ethylsulfonyl)-N-(2,2,2-trifluoroethyl)piperidin-4-carboxamide]"
–,> 50,> 50,"CCS(=O)(=O)N1CC(Nc2ccnc(-c3c[nH]c4ncccc34)n2)(C(=O)NCC(F)(F)F)C1 [Example 32, 3-((2-(1H-pyrrolo[2,3-b]pyridin-3-yl)pyrimidin-4-yl)amino)-1-(ethylsulfonyl)-N-(2,2,2-trifluoroethyl)azetidin-3-carboxamide]"
–,> 50,> 50,"CS(=O)(=O)N1CC(Nc2ccnc(-c3c[nH]c4ncccc34)n2)(C(=O)NCC(F)(F)F)C1 [Example 31, 3-((2-(1H-pyrrolo[2,3-b]pyridin-3-yl)pyrimidin-4-yl)amino)-1-(methylsulfonyl)-N-(2,2,2-trifluoroethyl)azetidin-3-carboxamide]"
20 to 50,> 50,> 50,CC[C@](C)(C#N)Nc1ccnc(-c2c[nH]c3ncccc23)n1 [Example 60]
20 to 50,> 50,> 50,"CS(=O)(=O)N1CC(C#N)(Nc2ccnc(-c3ncnc4[nH]ccc34)n2)C1 [Example 49, 3-((2-(7H-pyrrolo[2,3-d]pyrimidin-4-yl)pyrimidin-4-yl)amino)-1-(methylsulfonyl) azetidine-3-carbonitrile]"
> 50,20 to 50,20 to 50,"CS(=O)(=O)N1CC(CC(=O)NCC(F)(F)F)(n2cc(-c3ncnc4[nH]ccc34)cn2)C1 [Example 12, 2-(3-(4-(7H-pyrrolo[2,3-d]pyrimidin-4-yl)-1H-pyrazol-1-yl)-1-(methylsulfonyl)azetidin-3-yl)-N-(2,2,2-trifluoroethyl)acetamide]"
20 to 50,20 to 50,> 50,"O=C(NCC(F)(F)F)C1(Nc2nc(-c3c[nH]c4ncccc34)ncc2F)CCN(S(=O)(=O)C2CC2)CC1 [Example 42, 4-((5-fluoro-2-(1H-pyrrolo[2,3-b]pyridin-3-yl)pyrimidin-4-yl)amino)-1-(cyclopropylsulfonyl)-N-(2,2,2-trifluoroethyl)piperidin-4-carboxamide]"
> 50,> 50,> 50,"CS(=O)(=O)N1CC(C#N)(Nc2ccnc(-c3c[nH]c4ncccc34)n2)C1 [Example 48, 3-((2-(1H-pyrrolo[2,3-b]pyridin-3-yl)pyrimidin-4-yl)amino)-1-(methylsulfonyl) azetidine-3-carbonitrile]"
20 to 50,–,–,"CCS(=O)(=O)N1CC(C#N)(Nc2ccnc(-c3ccnc4[nH]ccc34)n2)C1 [Example 47, 3-((2-(1H-pyrrolo[2,3-b]pyridin-4-yl)pyrimidin-4-yl)amino)-1-(ethylsulfonyl)azetidine-3-carbonitrile]"
20 to 50,–,20 to 50,"O=C(CC1(n2cc(-c3c[nH]c4ncccc34)cn2)CCCC1)NCC(F)(F)F [Example 25, 2-(1-(4-(1H-pyrrolo[2,3-b]pyridin-3-yl)-1H-pyrazol-1-yl)cyclopentyl)-N-(2,2,2-trifluoroethyl) acetamide]"
–,20 to 50,> 50,"O=C(NCC(F)(F)F)C1(Nc2nc(-c3c[nH]c4ncccc34)ncc2F)CCS(=O)(=O)CC1 [Example 44, 4-((5-fluoro-2-(1H-pyrrolo[2,3-b]pyridin-3-yl)pyrimidin-4-yl)amino)-N-(2,2,2-trifluoroethyl)tetrahydro-2H-thiopyran-4-carboxamide 1,1-dioxide]"
–,> 50,> 50,CS(=O)(=O)N1CC(Nc2nc(-c3c[nH]c4ncccc34)ncc2F)(C(=O)NCC(F)(F)F)C1 [Example 34]
